Test results reported in ChEMBL document CHEMBL5154942, “Discovery of Clinical Candidate NTQ1062 as a Potent and Bioavailable Akt Inhibitor for the Treatment of Human Tumors” (J Med Chem, 2022).
Active and inactive are the calls of the source. The rule behind the calls is not given here.

Tests used:
[1] = AUC (0 to t) in NCG mouse xenografted with human LNCaP cells at 50 mg/kg administered daily once for 18 to 21 days and measured upto 10 hrs post last dose by LC-MS/MS analysis; type: ADME, organism-based; set-up: dose 50 mg/kg, time 18-21 day; details: in vivo
[2] = AUC (0 to infinity) in Sprague-Dawley rat at 5 mg/kg, iv measured upto 24 hrs by UPLC-MS/MS analysis; type: ADME, organism-based; set-up: dose 5 mg/kg, time < 24 hrs, route iv; details: in vivo
[3] = Cmax in crab-eating monkey at 6 mg/kg, ig by UPLC-MS/MS analysis; type: ADME, organism-based, Macaca fascicularis; set-up: dose 6 mg/kg, route ig; details: cynomolgus monkey, in vivo, po
[4] = Metabolic stability in Crab eating monkey liver microsomes assessed as half life at 1 uM measured after 60 mins by LC-MS/MS analysis; type: ADME, Macaca fascicularis, Microsome; details: cynomolgus monkey
[5] = AUC (0 to t) in crab-eating monkey at 6 mg/kg, ig by UPLC-MS/MS analysis; type: ADME, organism-based, Macaca fascicularis; set-up: dose 6 mg/kg, route ig; details: cynomolgus monkey, in vivo, po
[6] = Metabolic stability in CD-1 mouse liver microsomes assessed as parent compound remaining at 1 uM measured after 60 mins by UPLC-MS/MS analysis; type: ADME, Microsome; details: read-out: Stability
[7] = test system: LNCaP; assay: In vivo inhibition of AKT in human LNCaP cells xenografted in NCG mouse assessed as reduction in PRAS40 phosphorylation at 50 mg/kg administered for 21 days and measured after 4 hrs post last dose by Western blot analysis; type: functional, organism-based; details: time 21.0 day
[8] = Metabolic stability in Crab eating monkey liver microsomes assessed hepatic clearance at 1 uM measured after 60 mins by LC-MS/MS analysis; type: ADME, Macaca fascicularis, Microsome; details: cynomolgus monkey, 1 h
[9] = Bioavailability in Sprague-Dawley rat at 10 mg/kg, ig by UPLC-MS/MS analysis; type: ADME, organism-based; details: in vivo, po
[10] = molecular target: Cytochrome P450 2C19 (Homo sapiens, UniProt P33261); assay: Inhibition of CYP2C19 in human liver microsomes at 0.01 to 30 uM using mephenytoin as substrate in presence of NADPH by UPLC-MS/MS analysis; type: ADME, Microsome
Sequence of Cytochrome P450 2C19 (P33261 whole entry): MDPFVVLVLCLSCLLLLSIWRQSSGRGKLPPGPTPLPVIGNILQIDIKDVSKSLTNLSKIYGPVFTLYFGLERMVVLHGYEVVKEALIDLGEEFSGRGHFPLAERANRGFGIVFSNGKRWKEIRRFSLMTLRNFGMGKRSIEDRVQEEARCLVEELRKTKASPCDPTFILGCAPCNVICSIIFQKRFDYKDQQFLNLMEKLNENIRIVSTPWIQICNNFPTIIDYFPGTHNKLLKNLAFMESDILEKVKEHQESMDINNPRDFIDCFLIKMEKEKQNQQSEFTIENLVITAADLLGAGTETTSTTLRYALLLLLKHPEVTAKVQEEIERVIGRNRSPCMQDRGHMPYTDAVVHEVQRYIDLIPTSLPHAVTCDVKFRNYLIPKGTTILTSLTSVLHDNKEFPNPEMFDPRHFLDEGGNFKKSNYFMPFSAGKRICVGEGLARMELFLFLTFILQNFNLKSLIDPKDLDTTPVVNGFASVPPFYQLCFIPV

[11] = Metabolic stability in Beagle dog liver microsomes assessed as intrinsic clearance at 1 uM measured after 60 mins by LC-MS/MS analysis; type: ADME, Canis lupus familiaris, Microsome; details: 1 h
[12] = Cmax in Sprague-Dawley rat at 5 mg/kg, iv measured upto 24 hrs by UPLC-MS/MS analysis; type: ADME, organism-based; set-up: dose 5 mg/kg, time < 24 hrs, route iv; details: in vivo

SMILES: CC(C)NC[C@@H](C(=O)N1CCN(c2ncnc3c2[C@H](C)CC(=O)N3)[C@H]2C[C@H]21)c1ccc(Cl)cc1
- AUC(0-t) [1]: 22000 ng·h/mL
- AUC(0-inf) [2]: 1800 ng·h/mL
- Cmax [3]: 237 ng/mL
- half-life at 1 µM [4]: 28.3 min
- AUC(0-t) [5]: 1480 ng·h/mL
- remaining at 1 h, 1 µM [6]: 92.3%
- Activity [7]: Active
- CLH [8]: 1.51 mL/h/kg
- bioavailability [9]: 110%
- IC50 [10]: > 50 µM
- CLH [11]: 1.26 mL/h/kg
- Cmax [12]: 1690 ng/mL
